Assay results taken from patent publication US7407939B2, “Protein kinase inhibitors comprising ATP mimetics conjugated to peptides or peptidomimetics” (CureGenics Ltd., priority 2001, dated 2008).
Like-named read-outs stand apart in the source and are kept apart here. *1 amine or outer side, *2 acyl side, *3 side chain or, on linkers, in order; H or OH if unused. Where a SMILES comes first, the peptide text is derived from it. Side-chain parts run from the residue outwards. [ ]: non-standard residue; d: D form. The star is where a group is joined. Isoquinoline5sulfonyl = O=S(=O)(c1cccc2cnccc12)*; Ethylenediamine = C(CN[*:2])N[*:1]; hLeu = CC(C)CC[C@H](N)C(=O)O; Nle = CCCC[C@H](N)C(=O)O; Dab = NCC[C@H](N)C(=O)O; Nva = CCC[C@H](N)C(=O)O; βAla = NCCC(=O)O

What was measured:
PKB = target: T1, PKB (Homo sapiens, UniProt P31749); assay: PKB in vitro kinase activity assay (soluble His-HA-PKB / SPA bead screening); assay type: biochemical
T1 construct: His; HA; made in house
T1 sequence (P31749 whole entry, species assumed): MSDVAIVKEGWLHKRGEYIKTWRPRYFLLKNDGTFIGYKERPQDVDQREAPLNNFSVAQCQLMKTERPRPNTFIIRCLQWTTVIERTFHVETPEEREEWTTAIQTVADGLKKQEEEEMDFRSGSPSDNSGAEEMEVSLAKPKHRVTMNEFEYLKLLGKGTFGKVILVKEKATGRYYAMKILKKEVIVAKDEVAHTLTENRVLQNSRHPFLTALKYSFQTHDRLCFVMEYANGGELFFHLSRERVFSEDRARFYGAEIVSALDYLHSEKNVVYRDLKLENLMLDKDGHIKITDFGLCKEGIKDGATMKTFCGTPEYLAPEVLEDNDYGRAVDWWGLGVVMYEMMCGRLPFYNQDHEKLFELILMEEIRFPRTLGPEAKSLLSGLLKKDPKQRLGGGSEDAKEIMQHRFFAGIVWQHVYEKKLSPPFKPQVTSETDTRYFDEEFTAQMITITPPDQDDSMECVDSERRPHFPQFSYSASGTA
Procedure: The enzyme activity measurement is performed as described in the assay for PKA.
Kinase reaction was carried out in final volume of 50 μl. […] The kinase reaction was started by adding 10 μl of 2 μM cold ATP and 0.25 μCi of [γ^33P]-ATP in kinase buffer. The plates were incubated at 27° C. for 1 hr. At the end of the incubation the reaction was stopped by 200 μl of PBS containing 0.1% Triton X-100, 5 mM EDTA, 1 mM ATP and 0.3 mg/ml of Streptavidin-coated SPA bead (Amersham Pharmacia Biotech). After 15 min incubation at room temperature, the reaction mixtures were filtered using Packard GF/B 96-well plates. The plates were washed twice with 2M NaCl and 1% orthophosphoric acid followed by ethanol wash and 1 h air-dry. The radioactivity was counted using microplate counter Packard Top Count

PKA = target: T2, PKA (Bos taurus, UniProt P00517); assay: In vitro PKA kinase activity assay (kemptide / SPA beads); assay type: biochemical;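 also: Cell-free assay of purified PKA catalytic subunit phosphorylating the 7-mer kemptide substrate, run in MOPS buffer with magnesium acetate and BSA, with blank wells lacking enzyme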
T2 construct: purchased Promega
Procedure: PKA enzyme was purchased from Promega. PKA activity is assayed on a 7-mer peptide, LRRASLG, known as kemptide. The assay is carried out in 96-well plates, in a final volume of 50 μl per well. The reaction mixture includes various concentrations of the inhibitor, 50 mM MOPS, 10 mM MgAc, 0.2 mg/ml BSA, 10 μM ATP, 20 μM Kemptide and 1 μCi γ^32P ATP. Reaction is started with addition of 15 μl of the catalytic subunit of PKA diluted in 0.1 mg/ml BSA, 0.4 U/well. Two blank wells without enzyme are included in every assay. The plates are agitated continuously at 30° C. for 10′ or at 27° C. for 1 hour. Reaction is stopped by addition of 12 μl 200 mM EDTA. 20 μl aliquots of the assay mixture are spotted onto 2 cm^2 phosphocellulose strips (e.g. Whatman P81) and immersed in 75 mM phosphoric acid (10 ml per sample). The phosphocellulose strips are washed 6 times. Washes are done in continuous swirling for 5 minutes, last wash is in acetone. After air drying the strips, radiation is measured by scintillation spectrometry.
Screening compounds for PKA inhibition was performed in 96-well plate using SPA beads, as described below for PKB with the following modifications; The enzyme substrate was 5 μM biotinylated-kemptide peptide (biotin-[sequence]). The kinase buffer was 50 mM MOPS pH 7, 0.2 mg/ml BSA, 10 mM Magnesium acetate. PKA (0.4 unit) diluted in 0.1 mg/ml BSA was added to each well.

PC-3 cells = assay: ssDNA apoptosis ELISA (induction of apoptosis in prostate cancer cells); assay type: cell-based; settings: 50 μM, optical density of treated divided by untreated cells
Procedure: Cells were assayed for Apoptosis using the ssDNA Apoptosis ELISA kit (Chemicon International Inc.). Cells were seeded in 96-well plates (5000 cells/well) and treated with different concentrations of the inhibitors. At different time point, plates were centrifuges at 200 g for 5 min, medium was removed and the cells were fixed with 80% methanol in PBS for 30 min at room temperature. Plates were dried by floating in a waterbath at 37° C. for 20 minutes. 50 μl of Formamide was added to each well and incubate at room temperature for 10 min. Plates were heated to 75° C. in a circulating waterbath for 10 min, cooled in refrigerator for 5 min, and then formamide was removed. Plates were blocked by 3% non-fat dry milk in distilled water (w/v) for 1 hr at 37° C. Blocking was removed and 100 μl of antibody mixture (primary monoclonal antibody to ssDNA and HRP-labelled anti-mouse IgM) was added to each well. Plates were monitored for colour development by ABTS using microplate reader at 405 nm.
DNA in apoptotic cells is sensitive to denaturation by formamide in contrast to necrotic cells. This sensitivity is due to changes in apoptotic cells chromatin. The specific denaturation was detected with monoclonal antibody to single stranded DNA. Using ssDNA Apoptosis ELISA kit (Chemicon International, Inc.) chimeric compounds were analyzed for their potential to induce apoptosis in PC-3 cells compared to TRAIL (TNF-related apoptosis-inducing ligand), a known apoptotic agent (R&D Systems, Inc.). Results are presented in values of apoptotic index which is calculated by dividing the optical density of treated and untreated cells.

[1] = chimeric PTR compounds (peptide conjugated to isoquinoline small molecule), read-out: PKB IC50
[2] = chimeric PTR compounds (peptide conjugated to isoquinoline small molecule), read-out: PKA IC50

Structure (SMILES) | IC50 (PKB; [1]) [nM] | IC50 (PKA; [2]) [nM] | IC50 (PKB; FIG. 1, synergistic effect of conjugation, read-out: activity (PKB inhibition)) [nM] | IC50 (PKA; Table 2, chimeric compounds, read-out: Activity PKA) [nM] | Apoptotic index (48 hours) (PC-3 cells)
C[C@@H](O)[C@H](NC(=O)[C@H](CCCNC(=N)N)NC(=O)[C@@H]1CCCN1C(=O)[C@@H](N)CCCNC(=N)N)C(=O)N[C@@H](CCC(=O)NCCNS(=O)(=O)c1cccc2cnccc12)C(=O)N[C@@H](CO)C(=O)N[C@@H](Cc1ccccc1)C(N)=O [PTR 6016] (H-RPRTE([Ethylenediamine-Isoquinoline5sulfonyl])SF-NH2; N-terminus assumed) | 1000 | 100 | 900 | 500 | 3.4
C[C@@H](O)[C@H](NC(=O)[C@H](CCCNC(=N)N)NC(=O)[C@@H]1CCCN1C(=O)[C@@H](N)CCCNC(=N)N)C(=O)N[C@@H](CCC(=O)NCCC(=O)NCCNS(=O)(=O)c1cccc2cnccc12)C(=O)N[C@@H](CO)C(=O)N[C@@H](Cc1ccccc1)C(N)=O [compound 6082] (H-RPRTE([βAla-Ethylenediamine-Isoquinoline5sulfonyl])SF-NH2; N-terminus assumed) | 5540 | 200 |  |  | 2.6
CCCC[C@H](NC(=O)[C@H](CCCNC(=N)N)NC(=O)[C@@H]1CCCN1C(=O)[C@@H](N)CCCNC(=N)N)C(=O)N[C@@H](CCC(=O)NCCC(=O)NCCNS(=O)(=O)c1cccc2cnccc12)C(=O)N[C@@H](CO)C(=O)N[C@@H](Cc1ccccc1)C(N)=O [compound 6086] | 570 | 500 |  |  | 2.5

The next lines start with results.

IC50 (PKB; [1]) [nM] | IC50 (PKA; [2]) [nM] | IC50 (PKB; FIG. 1, synergistic effect of conjugation, read-out: activity (PKB inhibition)) [nM] | IC50 (PKA; Table 2, chimeric compounds, read-out: Activity PKA) [nM] | Structure (SMILES) | Apoptotic index (48 hours) (PC-3 cells)
5000 | 5000 |  |  | CCC[C@H](NC(=O)[C@H](CCCNC(=N)N)NC(=O)[C@@H]1CCCN1C(=O)[C@@H](N)CCCNC(=N)N)C(=O)N[C@@H](CCC(=O)NCCC(=O)NCCNS(=O)(=O)c1cccc2cnccc12)C(=O)N[C@@H](C)C(=O)N[C@@H](CCC(C)C)C(N)=O [compound 6152] (H-RPR[Nva]E([βAla-Ethylenediamine-Isoquinoline5sulfonyl])A[hLeu]-NH2; N-terminus assumed) | 1.5
413 | 195 |  |  | CCCC[C@H](NC(=O)[C@H](CCCNC(=N)N)NC(=O)[C@@H]1CCCN1C(=O)[C@@H](N)CCCNC(=N)N)C(=O)N[C@@H](CCC(=O)NCCC(=O)NCCNS(=O)(=O)c1cccc2cnccc12)C(=O)N[C@@H](CCN)C(=O)N[C@@H](Cc1ccccc1)C(N)=O [compound 6140] (H-RPR[Nle]E([βAla-Ethylenediamine-Isoquinoline5sulfonyl])[Dab]F-NH2; N-terminus assumed) | 4.0
930 | 200 |  |  | CCCC[C@H](NC(=O)[C@H](CO)NC(=O)[C@H](CCC(=O)NCCC(=O)NCCNS(=O)(=O)c1cccc2cnccc12)NC(=O)[C@H](CCCC)NC(=O)[C@H](CCCNC(=N)N)NC(=O)[C@@H]1CCCN1C(=O)[C@@H](N)CCCNC(=N)N)C(N)=O [compound 6096] (H-RPR[Nle]E([βAla-Ethylenediamine-Isoquinoline5sulfonyl])S[Nle]-NH2; N-terminus assumed) | 3.2
